In patent US20260014119A1, “EMOPAMIL-BINDING PROTEIN INHIBITORS AND USES THEREOF” (BIOGEN MA INC., priority 2022, published 2026):
pIC50: −log10 of the molar value.

Biological target: T1, EBP (Homo sapiens, UniProt Q15125)
T1 construct: HEK293T cells were utilized as the source of EBP enzyme; endogenous in cells; host or cells: HEK293T
Assay: EBP Functional Assay (EBP immunoaffinity LC-MS assay)
Format: biochemical
Conditions: EBP enzyme from HEK293T cells; 30 min with inhibitor, then zymosterol-d5 at 37° C. for 4 h; percent conversion by LC-APCI MRM MS
Experimental: The EBP immunoaffinity (IA) LC-MS assay measures the potency of small molecule inhibitors of EBP by quantifying their concentration-dependent changes in the enzyme's substrate and product using liquid chromatography atmospheric pressure chemical ionization multiple reaction monitoring mass spectrometry (LC-APCI MRM MS). HEK293T cells were utilized as the source of EBP enzyme. The enzyme was incubated with the small molecule inhibitors at variable concentrations for 30 min. Deuterated form of EBP substrate, zymosterol-d5 (Avanti Polar Lipids, Cat #700068P-1 mg), was then added and the plate was incubated at 37° C. for 4 h. Finally, the sterol isomers were extracted and injected to LC-APCI MRM MS. MRM transition used for the quantification for both zymosterol and […] (substrate and product of EBP enzymatic reaction, respectively) is 372.3-203.2, CE 30 and DP 80 in positive ion mode. Percent conversion of the zymosterol-d5 to dehydrolathosterol-d5 was used to derive IC50 curves. Tasin-1 (1′-[(4-Methoxyphenyl)sulfonyl]-4-methyl-1,4′-bipiperidine, CAS 792927-06-1) was used as the reference small molecule inhibitor.
Percent conversion versus the compound concentration data were fit to the following 4-parameter logistic model to generate IC50 curves: […]

T1 sequence (Q15125 whole entry): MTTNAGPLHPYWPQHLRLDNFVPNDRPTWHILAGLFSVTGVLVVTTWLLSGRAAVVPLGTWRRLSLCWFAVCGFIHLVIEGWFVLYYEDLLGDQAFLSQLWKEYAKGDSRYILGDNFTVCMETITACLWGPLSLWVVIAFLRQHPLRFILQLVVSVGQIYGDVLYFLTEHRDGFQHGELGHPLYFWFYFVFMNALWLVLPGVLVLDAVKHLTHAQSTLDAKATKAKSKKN

Row | pIC50 | SMILES
1 | 6.30 to 7.00 | O=S(=O)(c1cc(F)cc(F)c1)N1C[C@H]2CN(C3CCOCC3)C[C@H]2C1 [Example 39, (3aR,6aS)-2-((3,5-Difluorophenyl)sulfonyl)-5-(tetrahydro-2H-pyran-4-yl)octahydropyrrolo[3,4-c]pyrrole]
2 | 6.30 to 7.00 | Cc1nc(C(F)(F)F)ccc1S(=O)(=O)N1C[C@H]2CN(C3CCOCC3)C[C@@H]2C1 [Example 45, (3aR,6aR)-2-((2-Methyl-6-(trifluoromethyl)pyridin-3-yl)sulfonyl)-5-(tetrahydro-2H-pyran-4-yl)octahydropyrrolo[3,4-c]pyrrole]
3 | 6.30 to 7.00 | Cn1nc(C(F)(F)F)cc1S(=O)(=O)N1C[C@H]2CN(C3CCOCC3)C[C@@H]2C1 [Example 46, (3aR,6aR)-2-((1-Methyl-3-(trifluoromethyl)-1H-pyrazol-5-yl)sulfonyl)-5-(tetrahydro-2H-pyran-4-yl)octahydropyrrolo[3,4-c]pyrrole]
4 | < 6.30 | Cc1cc(S(=O)(=O)N2C[C@H]3CN(C4CCOCC4)C[C@H]3C2)n(C)n1 [Example 49, Rac-(3aR,6aS)-2-((1,3-dimethyl-1H-pyrazol-5-yl)sulfonyl)-5-(tetrahydro-2H-pyran-4-yl)octahydropyrrolo[3,4-c]pyrrole]
5 | > 7.00 | Cc1nc(C(F)(F)F)nc(C)c1S(=O)(=O)N1C[C@H]2CN(C3CCOCC3)C[C@@H]2C1 [Example 60, (3aR,6aR)-2-((4,6-dimethyl-2-(trifluoromethyl)pyrimidin-5-yl)sulfonyl)-5-(tetrahydro-2H-pyran-4-yl)octahydropyrrolo[3,4-c]pyrrole]
6 | > 7.00 | Cc1nc(C(F)(F)F)nc(C)c1S(=O)(=O)N1C[C@H]2CN(C3CC4(COC4)C3)C[C@@H]2C1 [Example 61, (3aR,6aR)-2-((4,6-dimethyl-2-(trifluoromethyl)pyrimidin-5-yl)sulfonyl)-5-(2-oxaspiro[3.3]heptan-6-yl)octahydropyrrolo[3,4-c]pyrrole]
7 | > 7.00 | Cc1nc(C(F)(F)F)nc(C)c1S(=O)(=O)N1C[C@H]2CN(CC3CCOCC3)C[C@@H]2C1 [Example 62, (3aR,6aR)-2-((4,6-dimethyl-2-(trifluoromethyl)pyrimidin-5-yl)sulfonyl)-5-((tetrahydro-2H-pyran-4-yl)methyl)octahydropyrrolo[3,4-c]pyrrole]
